According to PubChem BioAssay AID2744 (NMMLSC, 2010):
The source made the active and inactive calls.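 Rule for the calls: active = fitted half-maximal concentration for changing reporter fluorescence at or below a set limit; inactive = the rest.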

Target: Citrate synthase, peroxisomal (Saccharomyces cerevisiae (strain ATCC 204508 / S288c)) (UniProt P08679)
Assay: CIT2-GFP expression modulators in yeast, dose response, flow cytometry, MLPCN hits (AID 2744)
Settings: S. cerevisiae CIT2-GFP strain, 3 h; for GFP fluorescence, higher = induction: at 33 µM (top of the series); for EC50: flow cytometry fluorescence

Sequence of Citrate synthase, peroxisomal (Saccharomyces cerevisiae (strain ATCC 204508 / S288c)) (P08679 whole entry, looked up): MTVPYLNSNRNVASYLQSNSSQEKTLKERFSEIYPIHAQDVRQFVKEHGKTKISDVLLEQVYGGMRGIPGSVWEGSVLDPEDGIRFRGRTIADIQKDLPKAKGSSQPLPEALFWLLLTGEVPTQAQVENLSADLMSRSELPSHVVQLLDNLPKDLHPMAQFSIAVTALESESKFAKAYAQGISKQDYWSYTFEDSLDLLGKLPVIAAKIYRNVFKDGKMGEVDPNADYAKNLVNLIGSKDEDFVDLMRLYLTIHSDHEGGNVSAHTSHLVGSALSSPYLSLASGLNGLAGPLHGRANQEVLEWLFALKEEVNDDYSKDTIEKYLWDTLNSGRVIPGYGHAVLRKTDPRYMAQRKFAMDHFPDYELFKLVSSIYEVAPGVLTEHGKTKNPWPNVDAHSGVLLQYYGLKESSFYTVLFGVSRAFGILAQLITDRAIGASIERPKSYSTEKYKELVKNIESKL

SMILES | GFP fluorescence, higher = induction | EC50 [µM]
Cc1cccc(Nc2nc(-c3ccccn3)cs2)n1 | inactive | –
CC(C)(C)C(=O)C(Cl)C(=O)Nc1ccccc1 (stereo unspecified) | inactive | –
Cc1cc(O)c(C(=O)/C=C/c2ccc(Cl)cc2)c(=O)o1 | inactive | –
O=C(Nc1ccc(Cl)cc1Cl)c1cccc(N2C(=O)C=CC2=O)c1 | inactive | –
Cc1ccc(/C=C2/SC(=S)N(C3CCCCC3)C2=O)o1 | inactive | –
COc1ccc(CCNC2=C(Cl)C(=O)N(CCc3ccccc3)C2=O)cc1OC | inactive | –
C/C(=N\NC(=O)c1cccc(Br)c1)c1ccccn1 | inactive | –
CC(C)(C)c1ccc(NC(=O)COC(=O)c2ccc([N+](=O)[O-])s2)cc1 | inactive | –
Nc1nc(N)c2nc(CNc3ccc(C(=O)NC(CCC(=O)O)C(=O)O)cc3)cnc2n1 (stereo unspecified) | inactive | –
CC(=O)N(C(C)=O)c1ncnc2c1c(-c1ccc(Cl)cc1)nn2C(C)(C)C | inactive | –
Cc1cc(=O)oc2cc(Oc3ccc([N+](=O)[O-])cc3C(F)(F)F)ccc12 | inactive | –
CC(=O)CSc1ncnc2c1cnn2-c1ccccc1 | inactive | –
Cc1c(Cc2ccccc2)c(NCCN(C)C)n2c(nc3ccccc32)c1C#N | inactive | –
O=[N+]([O-])c1ccc(Sc2nc3ccccc3o2)c([N+](=O)[O-])c1 | inactive | –
CC(OC(=O)c1ccco1)C(=O)Nc1nc(-c2ccccc2)cs1 (stereo unspecified) | inactive | –
O=C(Oc1ccnc2cc(Cl)ccc12)N1CCCCCC1 | inactive | –
O=C(/C=C/c1ccccc1[N+](=O)[O-])c1ccccc1Br | inactive | –
CCOC(=O)COc1ccc2ccccc2c1/C=C/[N+](=O)[O-] | inactive | –
COc1ccccc1C(=O)NNC(=S)NC(=O)c1ccco1 | inactive | –
CCc1nc2ccccc2c(=O)n1NC(=O)c1c(O)c2cccc3c2n(c1=O)CCC3 | inactive | –
O=C(/C=C/c1ccccn1)c1ccc(Br)cc1O | inactive | –
Cc1cccc(C(=O)NC(=S)NNC(=O)Cc2ccccc2)c1 | inactive | –
Clc1ccc(N=c2ssnc2Cl)cc1 | inactive | –

SMILES | GFP fluorescence, higher = induction | EC50 [µM]
Cc1ccc(C(=O)Sc2cccccc2=O)cc1 | inactive | –
O=C(Oc1cccc2cccnc12)c1ccc(Br)o1 | inactive | –
COc1ccc2c(c1)c(/C=C/c1cc[n+](C)cc1)cn2C | inactive | –
O=c1oc2cc(Oc3c([N+](=O)[O-])cc(C(F)(F)F)cc3[N+](=O)[O-])ccc2c2c1CCCC2 | inactive | –
Cc1ccccc1N1C(=O)C(Cl)=C(N2CCN(c3ccccc3)CC2)C1=O | inactive | –
O=C1N(c2ccccc2C(F)(F)F)O[C@@]1(c1ccccc1)C1CCCCC1 | inactive | –
C=C1C(O)[C@@H]2O[C@]3(CC[C@H](/C=C/C(C)[C@@H]4CC(C)=CC5(O[C@H](C[C@@](C)(O)C(=O)O)CCC5O)O4)O3)CC[C@H]2O[C@@H]1C(O)CC(C)[C@H]1OC2(CCCCO2)CCC1C (stereo partly specified) | inactive | –
O=C(OCC(=O)N1CCN(C(=O)c2ccco2)CC1)c1cc(-c2ccc(F)cc2)nc2ccccc12 | inactive | –
COc1cccc(/C=N/Nc2ncc(C(F)(F)F)cc2Cl)c1O | inactive | –
Cc1ccsc1/C=N/Nc1ncc(Cl)cc1Cl | inactive | –
CC(Oc1ccc(Cl)cc1)C(=O)NNC(=S)NC(=O)c1ccco1 (stereo unspecified) | inactive | –
Cc1cc(C)nc(S/C=C/C(=O)c2ccccc2)n1 | inactive | –
Cc1ccc(NC(=O)c2nc(S(=O)(=O)Cc3ccccc3)ncc2Cl)cc1 | inactive | –
CCOC(=O)c1c(C)oc2c1c(C(c1cccnc1)N1CCOCC1)c(O)c1ccccc12 (stereo unspecified) | inactive | –
C=CCn1c(C)c(/C=C/c2cc[n+](C)cc2)c2ccccc21 | inactive | –
O=[N+]([O-])c1c(Nc2ccccn2)cc(Cl)c2nonc12 | inactive | –
CCn1c(=O)c(C(C)=O)c(O)c2ccccc21 | inactive | –
C=CCN1C(=O)/C(=C/c2ccc(-c3ccc(F)cc3)o2)SC1=S | inactive | –
N#Cc1cc([N+](=O)[O-])c(-n2nnc3ccccc32)c([N+](=O)[O-])c1 | inactive | –
O=C(NC(=S)NNC(=O)c1ccc(Cl)cc1Cl)c1cccnc1 | inactive | –
O=C(c1ccc([N+](=O)[O-])o1)N1CCN(c2nc3c(F)cc(F)cc3s2)CC1 | inactive | –
O=C(OCn1ncc(Br)c(Br)c1=O)c1c(F)cccc1F | inactive | –
COc1ccc(C(=O)NC(=S)NNC(=O)c2cnccn2)cc1 | inactive | –

SMILES | GFP fluorescence, higher = induction | EC50 [µM]
O/C=c1\ccc2cccc3nc(C(F)(F)F)nc1c23 | inactive | –
COc1ccc2c(/C=C/c3cc[n+](C)cc3)c[nH]c2c1 | inactive | –
O=C(c1ccc(C(=O)N2CCCc3ccccc32)s1)N1CCCc2ccccc21 | inactive | –
O=c1[nH]c(-c2ccc(Cl)cc2)cs1 | inactive | –
CC(=O)n1cc(C(C[N+](=O)[O-])SCCN)c2ccccc21 (stereo unspecified) | inactive | –
Oc1c(C(Nc2cccc(C(F)(F)F)c2)c2ccncc2)ccc2cccnc12 (stereo unspecified) | inactive | –
COc1ccc(N2C(=O)C(Cl)=C(NCc3ccccc3)C2=O)cc1 | inactive | –
CC1=NNC(=O)/C1=C\c1cn(-c2ccccc2)nc1-c1cccs1 | inactive | –
O=C(Nc1ccc(N2CCOCC2)cc1)C1CCN(S(=O)(=O)c2ccc3c(c2)OCCO3)CC1 | inactive | –
C[C@H]1C[C@@H](C)C(=O)[C@@H]([C@H](O)CC2CC(=O)NC(=O)C2)C1 | inactive | –
N#Cc1nccnc1S(=O)(=O)c1cccs1 | inactive | –
Cc1ccc(NC(=O)c2ccc(Cl)c(N3C(=O)C=CC3=O)c2)cc1 | inactive | –
CC(=O)OC[C@]12CC[C@H]3[C@@](C)(CC[C@H]4C(C)(C)CCC[C@]34C)[C@@H]1C[C@H](C1=CC(=O)O[C@@H]1OC(C)=O)O2 | inactive | –
O=C(Nc1ccc(Cl)cc1)ON=C1CCCC1 | – | 1.23
COc1ccc(CCNC2=C(Cl)C(=O)N(CCc3ccc(OC)c(OC)c3)C2=O)cc1OC | inactive | –
N#Cc1ccc(N=c2ssnc2Cl)cc1 | inactive | –
O=C1NC(=O)N(Cc2ccc(F)cc2)C(=O)/C1=C/c1cccs1 | inactive | –
O=C1CCN(S(=O)(=O)c2ccccc2)CCN1CCOCc1ccc(F)cc1 | inactive | –
COc1ccc(C=C2C(=O)c3ccccc3C2=O)cc1O | inactive | –
CN1CCN(C(c2ccc(C(F)(F)F)cc2)c2ccc3cccnc3c2O)CC1 (stereo unspecified) | inactive | –
O=C1C(Cl)=C(Nc2ccccc2O)C(=O)N1c1ccccc1 | inactive | –
COc1cccc(/C=C2\SC(=S)N(CCCC(=O)Nc3ccc(C(=O)O)cc3)C2=O)c1 | inactive | –
O=C1NC(=O)N(CCc2ccc(F)cc2)C(=O)/C1=C/c1cccs1 | inactive | –

SMILES | GFP fluorescence, higher = induction | EC50 [µM]
COc1ccc(N2C(=O)CC(Sc3ncn[nH]3)C2=O)c(OC)c1 (stereo unspecified) | inactive | –
CN(c1ccccc1)c1ccc(/C=c2\s/c(=C(/C#N)C(=O)C(C)(C)C)n(Cc3ccco3)c2=O)cc1 | inactive | –
CC1=C/C(=N\OS(=O)(=O)c2ccccc2)C(C)=CC1=O | inactive | –
O=C(NC(=S)NNC(=O)[C@H]1C[C@@H]1c1ccccc1)c1cccc(F)c1 | inactive | –
N/C(=N\OC(=O)c1cccc(Br)c1)c1ccccc1 | inactive | –
Cc1nc2ccc(NC(=O)c3oc4ccc(F)cc4c3C)cc2s1 | inactive | –
CCOC(=O)c1c(C)oc2c1c(C(c1ccncc1)N1CCOCC1)c(O)c1ccccc12 (stereo unspecified) | inactive | –
CCN(CC)C(=S)SSC(=S)N(CC)CC | inactive | –
N=C1/C(=C\c2coc3ccccc3c2=O)C(=O)N=C2SC(c3ccncc3)=NN12 | – | 13
Cc1ccc(NC(=O)ON=C2CCCC2)cc1 | – | 3.79
CN(C)c1ccc(N=Cc2nc(-c3ccccc3)oc2OC(=O)c2cccc(Cl)c2)cc1 | inactive | –
CCc1cccc2sc(N3CCN(C(=O)c4ccc([N+](=O)[O-])o4)CC3)nc12 | inactive | –
O=C(/C=C/c1ccnc2ccccc12)c1cccs1 | inactive | –
C#CCOCCOCCOCCNc1nc(N2CCN(C(=O)CCCCCCCCCCNC(=O)[C@H](CCCCN)n3cc(CCO)nn3)CC2)nc(N2CCN(C(=O)CCCCCCCCCCNC(=O)[C@H](CCCCN)n3cc(C[C@@H](C)CC)nn3)CC2)n1 | inactive | –
O=c1c2cnn(-c3ccccc3)c2ncn1Cc1ccco1 | inactive | –
CC(=O)NN1C(=O)/C(=C/c2ccc(Br)o2)SC1=S | inactive | –
Cc1cc(C(=O)COC(=O)c2ccc[nH]c2=O)c(C)n1-c1ccccc1F | inactive | –
O=C(Sc1cccc2cccnc12)c1ccccc1Br | inactive | –
CCN(CC)c1ccc(/C=C2/C(=O)c3ccc(C(=O)O)cc3C2=O)cc1 | inactive | –
Cc1cc(S(=O)(=O)ON2C(=O)c3ccccc3C2=O)ccc1F | inactive | –
COc1ccc([N+](=O)[O-])c(S(=O)(=O)c2ccc(Cl)cc2)n1 | inactive | –
COc1ccc(-c2cc3cc(C(=O)O)ccn3c2C(=O)c2ccccc2)cc1 | inactive | –
